Assay results published in US20240327392A1, “HETEROCYCLOALKYL-SUBSTITUTED POLYHETEROAZOLE DERIVATIVES AS MEDICAMENTS FOR TREATING AND/OR PREVENTING RS VIRUS INFECTIONS” (ALBIUS SCIENCES ALPHA PRIVATE LIMITED, priority 2021, published 2024).

The compounds below were run on human RS virus A2 strain (assay: In vitro test for anti-RS virus proliferation inhibitory activity (quantitative RT-PCR of RS virus RNA copy number in infected Vero cells)). Conditions: 72 h; Vero cells infected with human RS virus A2 strain, 3 days of incubation, RS virus N gene RNA copy number by quantitative RT-PCR; read-out: Anti-RS virus Activity.
Format: cell-based
Method in brief: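 Vero cells infected with RSV A2 (1.7×10^4 TCID50/mL in inoculum mix) with compound in 10% FCS EMEM, 3 days at 37 °C, 5% CO2. Lysate viral N-gene RNA quantified by one-step SYBR qRT-PCR; copy number by comparative Ct relative to untreated infected cells.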
`O=S(=O)(C1CCCCC1)N1CCC[C@H]1c1nc(CCCc2ccccc2)no1` [Compound 1B, 3-(3-phenylpropyl)-5-[(2S)-1-cyclohexylsulfonylpyrrolidin-2-yl]-1,2,4-oxadiazole] gave an IC50 of 10 to 50 µM. `CC(C)(C)O[C@@H]1C[C@@H](c2nc(CCCc3ccccc3)no2)N(S(=O)(=O)C2CCCCC2)C1` [Compound 4B, 3-(3-phenylpropyl)-5-[(2S,4R)-4-tert-butoxy-1-cyclohexylsulfonyl-pyrrolidin-2-yl]-1,2,4-oxadiazole] was tested, and the IC50 was < 10 µM. `O=S(=O)(C1CCCCC1)N1C[C@H](O)C[C@H]1c1nc(CCCc2ccccc2)no1` [Compound 3B, 3-(3-phenylpropyl)-5-[(2S,4R)-1-cyclohexylsulfonyl-4-hydroxypyrrolidin-2-yl]-1,2,4-oxadiazole] was tested, and the IC50 was 10 to 50 µM. With `O=S(=O)(c1ccccc1)N1CCCC[C@H]1c1nc(CCCc2ccccc2)no1` [Compound 2D, 3-(3-phenylpropyl)-5-[(2S)-1-benzenesulfonylpiperidin-2-yl]-1,2,4-oxadiazole] the IC50 was < 10 µM. In the case of `O=S(=O)(Cc1ccccc1)N1CCCC[C@H]1c1nc(CCCc2ccccc2)no1` [Compound 2E, 3-(3-phenylpropyl)-5-[(2S)-1-benzylsulfonylpiperidin-2-yl]-1,2,4-oxadiazole], the IC50 is reported as < 10 µM. With `NC(=O)c1ccc2cc(C(=O)N3C[C@H](O)C[C@H]3c3nc(CCCc4ccccc4)no3)ccc2c1` [Compound 4-5] the IC50 was > 50 µM. `CS(=O)(=O)N1CCC[C@H]1c1nc(CCCc2ccccc2)no1` [Compound 1C, 3-(3-phenylpropyl)-5-[(2S)-1-methanesulfonylpyrrolidin-2-yl]-1,2,4-oxadiazole] was tested, and the IC50 was > 50 µM.

Same assay, conditions: 72 h; Vero cells infected with human RS virus A2 strain, 3 days of incubation, RS virus RNA copy number by quantitative RT-PCR; read-out: Anti-RS virus Activity
`CCOC(=O)C1CCN(S(=O)(=O)N2CC3(CC3)C[C@H]2c2nc(CCCc3ccccc3)no2)CC1` [Compound 5AC, ethyl (S)-1-((6-(3-(3-phenylpropyl)-1,2,4-oxadiazole-5-yl)-5-azaspiro[2.4]heptan-5-yl)sulfonyl)piperidin-4-carboxylate] was tested, and the IC50 was 10 to 50 µM. For `CN(C)c1cccc2c(S(=O)(=O)N3C[C@H](F)C[C@H]3c3nc(CCCc4ccccc4)no3)cccc12` [Compound 8AL, 5-(((2S,4R)-4-fluoro-2-(3-(3-phenylpropyl)-1,2,4-oxadiazole-5-yl)pyrrolidin-1-yl)sulfonyl)-N,N-dimethylnaphthalen-1-amine], the IC50 was < 10 µM. `O=S(=O)(c1ccccc1)N1CC(c2ccccc2)C[C@H]1c1nc(CCCc2ccccc2)no1` (stereo in doubt) [Compound 7D, 3-(3-phenylpropyl)-5-[(2S,4S)-1-benzenesulfonyl-4-phenylpyrrolidin-2-yl]-1,2,4-oxadiazole] was tested, and the IC50 was < 10 µM. `CC(C)CC(=O)N1CCC[C@H]1c1nc(CCCc2ccccc2)no1` [Compound 1Q, (S)-3-Methyl-1-(2-(3-(3-phenylpropyl)-1,2,4-oxadiazol-5-yl)pyrrolidin-1-yl) butan-1-one] was tested, and the IC50 was < 10 µM. For `NC(=O)[C@H]1C[C@@H](c2nc(CCCc3ccccc3)no2)N(S(=O)(=O)c2ccc(F)cc2)C1` [Compound 42AJ, (3S,5S)-1-((4-fluorophenyl)sulfonyl)-5-(3-(3-phenylpropyl)-1,2,4-oxadiazol-5-yl)pyrrolidine-3-carboxamide], the IC50 was 10 to 50 µM. In the case of `CC(C)(C)S(=O)(=O)N1CCCC[C@H]1c1nc(CCCc2ccccc2)no1` [Compound 2X, (S)-5-(1-(tert-butylsulfonyl)piperidin-2-yl)-3-(3-phenylpropyl)-1,2,4-oxadiazole], the IC50 is reported as < 10 µM. For `COc1ccc(S(=O)(=O)N2C[C@H](F)C[C@H]2c2nc(CCCc3ccccc3)no2)cc1` [Compound 8AI, 5-((2S,4R)-4-fluoro-1-((4-methoxyphenyl)sulfonyl)pyrrolidin-2-yl)-3-(3-phenylpropyl)-1,2,4-oxadiazole], the IC50 was < 10 µM. `O=S(=O)(c1ccc(F)cc1)N1C[C@H](F)C[C@H]1c1nc(CCCc2ccccc2)no1` [Compound 8AJ, 5-((2S,4R)-4-fluoro-1-((4-fluorophenyl)sulfonyl)pyrrolidin-2-yl)-3-(3-phenylpropyl)-1,2,4-oxadiazole] was tested, and the IC50 was < 10 µM. `CCOC(=O)C1CCN(S(=O)(=O)N2CC(CC3CCC3)CC2c2nc(CCCc3ccccc3)no2)CC1` (stereo not drawn) [Compound 6AC, ethyl 1-((4-(cyclobuthylmethyl)-2-(3-(3-phenylpropyl)-1,2,4-oxadiazole-5-yl)pyrrolidin-1-yl)sulfonyl)piperidin-4-carboxylate] showed an IC50 of 10 to 50 µM. For `O=S(=O)(Cc1ccccc1)N1CC(CC2CCC2)CC1c1nc(CCCc2ccccc2)no1` (stereo not drawn) [Compound 6E, 3-(3-phenylpropyl)-5-(1-benzylsulfonyl-4-cyclobutylmethylpyrrolidin-2-yl)-1,2,4-oxadiazole], the IC50 was < 10 µM. For `O=C(Cc1ccccc1)N1CCCC[C@H]1c1nc(CCCc2ccccc2)no1` [Compound 2P, (S)-2-Phenyl-1-(2-(3-(3-phenylpropyl)-1,2,4-oxadiazol-5-yl)piperidin-1-yl)ethan-1-one], the IC50 was < 10 µM. With `CC(C)(C)OC(=O)N1CCCC[C@H]1c1nc(CCc2ccncc2)no1` [Compound 12-1, Tert-butyl (S)-2-(3-(2-(pyridin-4-yl)ethyl)-1,2,4-oxadiazol-5-yl)piperidine-1-carboxylate] the IC50 was < 10 µM. In the case of `CC(C)(C)OC(=O)N1C[C@H](c2ccccc2)C[C@H]1c1nnc(CCCc2ccccc2)[nH]1` [Compound 19-1, Tert-butyl (2S,4S)-4-phenyl-2-(5-(3-phenylpropyl)-4H-1,2,4-triazol-3-yl)pyrrolidine-1-carboxylate], the IC50 is reported as < 10 µM. `O=C(NCc1noc([C@@H]2CCCCN2S(=O)(=O)C2CCCCC2)n1)c1ccc2c(c1)OCO2` [Compound 21B, (S)—N-((5-(1-(cyclohexylsulfonyl)piperidin-2-yl)-1,2,4-oxadiazol-3-yl)methyl)benzo[d][1,3]dioxol-5-carboxamide] was tested, and the IC50 was > 50 µM. Work on `O=S(=O)(N1CCOCC1)N1CC(CC2CCC2)CC1c1nc(CCCc2ccccc2)no1` (stereo not drawn) [Compound 6AE, 4-((4-(cyclobuthylmethyl)-2-(3-(3-phenylpropyl)-1,2,4-oxadiazole-5-yl)pyrrolidin-1-yyl)sulfonyl)morpholine] yielded an IC50 of 10 to 50 µM. For `CC(C)(C)OC(=O)N1CCC(S(=O)(=O)N2C[C@H](c3ccccc3)C[C@H]2c2nc(CCCc3ccccc3)no2)CC1` [Compound 7AO], the IC50 was < 10 µM. For `O=C(C1CCCCC1)N1CCCC[C@H]1c1nc(CCCc2ccccc2)no1` [Compound 2Y, (S)-cyclohexyl(2-(3-(3-phenylpropyl)-1,2,4-oxadiazol-5-yl)piperidin-1-yl)methanone], the IC50 was < 10 µM. With `O=S(=O)(c1ccc(F)cc1)N1CC(CC2CCC2)CC1c1nc(CCCc2ccccc2)no1` (stereo not drawn) [Compound 6AJ, 5-(4-(cyclobuthylmethyl)-1-((4-fluorophenyl)sulfonyl)pyrrolidin-2-yl)-3-(3-phenylpropyl)-1,2,4-oxsdiazole] the IC50 was < 10 µM. For `CC(C)CCN1CCCC[C@H]1c1nc(CCCc2ccccc2)no1` [Compound 2T, (S)-5-(1-isopentylpiperidin-2-yl)-3-(3-phenylpropyl)-1,2,4-oxadiazole], the IC50 was 10 to 50 µM. For `O=S(=O)(Cc1ccccc1)N1CC(c2ccccc2)C[C@H]1c1nc(CCCc2ccccc2)no1` (stereo in doubt) [Compound 7E, 3-(3-Phenylpropyl)-5-[(2S,4S)-1-benzylsulfonyl-4-phenylpyrrolidin-2-yl]-1,2,4-oxadiazole], the IC50 was > 50 µM. `O=C(NCc1noc([C@@H]2C[C@@H](c3ccccc3)CN2S(=O)(=O)c2ccc(F)cc2)n1)c1ccc2ccccc2n1` [Compound 45AJ, N-((5-((2S,4S)-1-((4-fluorophenyl)sulfonyl)-4-phenylpyrrolidin-2-yl)-1,2,4-oxadiazol-3-yl)methyl)quinoline-2-carboxamide] was tested, and the IC50 was 10 to 50 µM. In the case of `CN(C)c1ccc(S(=O)(=O)N2C[C@H](F)C[C@H]2c2nc(CCCc3ccccc3)no2)cc1` [Compound 8AK, 4-(((2S,4R)-4-fluoro-2-(3-(3-phenylpropyl)-1,2,4-oxadiazole-5-yl)pyrrolidin-1-yl)sulfonyl)-N,N-dimethylaniline], the IC50 is reported as < 10 µM. With `O=C(Cc1ccccc1)N1CCC[C@H]1c1nc(CCCc2ccccc2)no1` [Compound 1P, (S)-2-Phenyl-1-(2-(3-(3-phenylpropyl)-1,2,4-oxadiazol-5-yl)pyrrolidin-1-yl) ethan-1-one] the IC50 was < 10 µM. In the case of `CC(C)(C)OC(=O)N1C[C@@H](CC2CCC2)C[C@H]1c1nc(CCCc2ccccc2)no1` (racemic) [Compound 6-1, 3-(3-phenylpropyl)-5-(1-tert-butoxycarbonyl-4-cyclobutylmethylpyrrolidin-2-yl)-1,2,4-oxadiazole], the IC50 is reported as < 10 µM. `O=S(=O)(C1CCCCC1)N1CC2(CC2)C[C@H]1c1nc(CCCc2ccccc2)no1` [Compound 5B, 3-(3-phenylpropyl)-5-{(6S)-5-cyclohexylsulfonyl-5-azaspiro[2.4]hept-6-yl}-1,2,4-oxadiazole] was tested, and the IC50 was < 10 µM. For `O=S(=O)(c1ccccc1)N1CC2(CC2)C[C@H]1c1nc(CCCc2ccccc2)no1` [Compound 5D, 3-(3-phenylpropyl)-5-{(6S)-5-benzenesulfonyl-5-azaspiro[2.4]hept-6-yl}-1,2,4-oxadiazole], the IC50 was > 50 µM. `CN(C)c1ccc(S(=O)(=O)N2C[C@H](c3ccccc3)C[C@H]2c2nc(CCCc3ccccc3)no2)cc1` [Compound 7AK, N,N-dimethyl-4-(((2S,4S)-4-phenyl2-(3-(3-phenylpropyl)-1,2,4-oxadiazole-5-yl)pyrrolidin-1-yl)sulfonyl)aniline] was tested, and the IC50 was < 10 µM.

Same assay, conditions: Vero, 72 h, read-out: Anti-RS virus Activity
With `O=S(=O)(N1CCCCC1)N1CCCC[C@H]1c1nc(CCCc2ccccc2)no1` [Compound 2AD, (S)-3-(3-phenylpropyl)-5-(1-(piperidine-1-ylsulfonyl)piperidin-2-yl)-1,2,4-oxadiazole] the IC50 was < 10 µM. Compound `S=C(NCc1ccccc1)N1C[C@H](c2ccccc2)C[C@H]1c1nc(CCCc2ccccc2)no1` [Compound 7AR, (2S,4S)—N-Benzyl-4-phenyl-2-(3-(3-phenylpropyl)-1,2,4-oxadiazol-5-yl) pyrrolidine-1-carbothioamide] has an IC50 of 10 to 50 µM.
